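1) Cells in 96-well plates. 2) Compound, 48 h, 5 concentrations. 3) Linear interpolation between surrounding doses. 4) Unreached endpoint = highest concentration. Abbreviation: GI50, concentration required for 50% inhibition of growth. TGI: total growth inhibition.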
How the values were obtained:
Test in all cases: DTP human tumour cell line panel, 48 h
786-0 renal = test system: 786-0 renal
A498 renal = test system: A498 renal
A549 NSCLC = test system: A549 NSCLC
ACHN renal = test system: ACHN renal
BT-549 breast = test system: BT-549 breast
CAKI-1 renal = test system: CAKI-1 renal
COLO 205 colon = test system: COLO 205 colon
DU-145 prostate = test system: DU-145 prostate
EKVX NSCLC = test system: EKVX NSCLC
HCC-2998 colon = test system: HCC-2998 colon
HCT-116 colon = test system: HCT-116 colon
HCT-15 colon = test system: HCT-15 colon
HOP-62 NSCLC = test system: HOP-62 NSCLC
HS 578T breast = test system: HS 578T breast
HT29 colon = test system: HT29 colon
K-562 leukemia = test system: K-562 leukemia
KM12 colon = test system: KM12 colon
M14 melanoma = test system: M14 melanoma
MALME-3M melanoma = test system: MALME-3M melanoma
MCF7 breast = test system: MCF7 breast
MDA-MB-231 breast = test system: MDA-MB-231 breast
MDA-MB-435 = test system: MDA-MB-435
MDA-N = test system: MDA-N
NCI-H226 lung = test system: NCI-H226 lung
NCI-H23 lung = test system: NCI-H23 lung
NCI-H460 lung = test system: NCI-H460 lung
NCI-H522 lung = test system: NCI-H522 lung
NCI/ADR-RES ovarian = test system: NCI/ADR-RES ovarian
OVCAR-3 ovarian = test system: OVCAR-3 ovarian
OVCAR-4 ovarian = test system: OVCAR-4 ovarian
OVCAR-5 ovarian = test system: OVCAR-5 ovarian
PC-3 prostate = test system: PC-3 prostate
RPMI-8226 leukemia = test system: RPMI-8226 leukemia
RXF 393 renal = test system: RXF 393 renal
SF-268 CNS = test system: SF-268 CNS
SF-295 CNS = test system: SF-295 CNS
SF-539 CNS = test system: SF-539 CNS
SK-MEL-2 melanoma = test system: SK-MEL-2 melanoma
SK-MEL-28 melanoma = test system: SK-MEL-28 melanoma
SK-MEL-5 melanoma = test system: SK-MEL-5 melanoma
SK-OV-3 ovarian = test system: SK-OV-3 ovarian
SN12C renal = test system: SN12C renal
SNB-19 CNS = test system: SNB-19 CNS
SNB-75 CNS = test system: SNB-75 CNS
SW-620 colon = test system: SW-620 colon
T-47D breast = test system: T-47D breast
TK-10 renal = test system: TK-10 renal
U251 CNS = test system: U251 CNS
UACC-257 melanoma = test system: UACC-257 melanoma
UACC-62 melanoma = test system: UACC-62 melanoma
UO-31 renal = test system: UO-31 renal
HL-60(TB) leukemia = test system: HL-60(TB) leukemia
HOP-92 NSCLC = test system: HOP-92 NSCLC
LOX IMVI melanoma = test system: LOX IMVI melanoma
OVCAR-8 ovarian = test system: OVCAR-8 ovarian
SR leukemia = test system: SR leukemia
CCRF-CEM leukemia = test system: CCRF-CEM leukemia
IGROV1 ovarian = test system: IGROV1 ovarian
MOLT-4 leukemia = test system: MOLT-4 leukemia

## Cc1ccc(NC(=O)c2cc3ccccc3cc2O)c(C)c1.Cc1ccc(NC(=O)c2cc3ccccc3cc2[O-])c(C)c1.[Ni+2]
786-0 renal
  GI50: 3.77 µM
  TGI: 14.6 µM
A498 renal
  GI50: 3.44 µM
  TGI: 13.4 µM
A549 NSCLC
  GI50: 3.44 µM
  TGI: 15.6 µM
ACHN renal
  GI50: 4.22 µM
BT-549 breast
  GI50: 2.44 µM
  TGI: 7.55 µM
CAKI-1 renal
  GI50: 3.08 µM
  TGI: 13.1 µM
COLO 205 colon
  GI50: 6.65 µM
  TGI: 24.6 µM
DU-145 prostate
  GI50: 3.27 µM
  TGI: 13.2 µM
EKVX NSCLC
  GI50: 2.57 µM
  TGI: 8.99 µM
HCC-2998 colon
  GI50: 2.63 µM
  TGI: 6.74 µM
HCT-116 colon
  GI50: 2.79 µM
  TGI: 11.4 µM
HCT-15 colon
  GI50: 3.24 µM
  TGI: 17.2 µM
HOP-62 NSCLC
  GI50: 3.87 µM
  TGI: 17 µM
HS 578T breast
  GI50: 2.98 µM
  TGI: 9.38 µM
HT29 colon
  GI50: 3.14 µM
  TGI: 10.9 µM
K-562 leukemia
  GI50: 3.7 µM
  TGI: 12.9 µM
KM12 colon
  GI50: 3.41 µM
  TGI: 15.9 µM
M14 melanoma
  GI50: 4.31 µM
  TGI: 13.9 µM
MALME-3M melanoma
  GI50: 3.4 µM
  TGI: 14.3 µM
MCF7 breast
  GI50: 3.45 µM
MDA-MB-231 breast
  GI50: 2.33 µM
  TGI: 5.27 µM
MDA-MB-435
  GI50: 3.38 µM
  TGI: 13.1 µM
MDA-N
  GI50: 3.44 µM
  TGI: 17.3 µM
NCI-H226 lung
  GI50: 3.49 µM
  TGI: 8.37 µM
NCI-H23 lung
  GI50: 2.48 µM
  TGI: 10.1 µM
NCI-H460 lung
  GI50: 2.77 µM
  TGI: 14.3 µM
NCI-H522 lung
  GI50: 3.08 µM
  TGI: 10.5 µM
NCI/ADR-RES ovarian
  GI50: 2.45 µM
  TGI: 8.6 µM
OVCAR-3 ovarian
  GI50: 4.23 µM
  TGI: 20.6 µM
OVCAR-4 ovarian
  GI50: 3.88 µM
  TGI: 25.4 µM
OVCAR-5 ovarian
  GI50: 4.25 µM
  TGI: 17.9 µM
PC-3 prostate
  TGI: 5.38 µM
RPMI-8226 leukemia
  GI50: 1.94 µM
  TGI: 6.1 µM
RXF 393 renal
  GI50: 1.9 µM
  TGI: 6.37 µM
SF-268 CNS
  GI50: 3.52 µM
  TGI: 17.2 µM
SF-295 CNS
  GI50: 3.89 µM
  TGI: 14.3 µM
SF-539 CNS
  GI50: 4.75 µM
  TGI: 53.2 µM
SK-MEL-2 melanoma
  GI50: 1.53 µM
  TGI: 3.62 µM
SK-MEL-28 melanoma
  GI50: 6.42 µM
  TGI: 88.1 µM
SK-MEL-5 melanoma
  GI50: 2.57 µM
  TGI: 10.2 µM
SK-OV-3 ovarian
  GI50: 2.9 µM
  TGI: 11.6 µM
SN12C renal
  GI50: 3.12 µM
  TGI: 15.1 µM
SNB-19 CNS
  GI50: 3.72 µM
  TGI: 20.2 µM
SNB-75 CNS
  GI50: 2.78 µM
  TGI: 6.7 µM
SW-620 colon
  GI50: 4.24 µM
  TGI: 36.8 µM
T-47D breast
  GI50: 3.08 µM
  TGI: 14.8 µM
TK-10 renal
  GI50: 4.66 µM
  TGI: 17 µM
U251 CNS
  GI50: 2.91 µM
  TGI: 8.62 µM
UACC-257 melanoma
  GI50: 2.94 µM
  TGI: 7.85 µM
UACC-62 melanoma
  GI50: 4.91 µM
  TGI: 21.2 µM
UO-31 renal
  GI50: 3.79 µM
  TGI: 11.9 µM

## CCN(CC)C(=S)SS(=O)(=O)c1ccc(NC(C)=O)cc1
786-0 renal
  TGI: 36.5 µM
A498 renal
  TGI: > 89.5 µM
A549 NSCLC
  TGI: 43.4 µM
ACHN renal
  TGI: > 88.8 µM
BT-549 breast
  TGI: > 78.4 µM
CAKI-1 renal
  TGI: 41.8 µM
COLO 205 colon
  TGI: > 72.1 µM
DU-145 prostate
  TGI: > 75.4 µM
EKVX NSCLC
  TGI: > 100 µM
HCC-2998 colon
  TGI: > 100 µM
HCT-116 colon
  TGI: 31.1 µM
HCT-15 colon
  TGI: > 100 µM
HL-60(TB) leukemia
  TGI: 76.4 µM
HOP-62 NSCLC
  TGI: 42 µM
HOP-92 NSCLC
  TGI: 51.3 µM
HS 578T breast
  TGI: > 100 µM
HT29 colon
  TGI: 70.8 µM
K-562 leukemia
  TGI: > 100 µM
KM12 colon
  TGI: > 100 µM
LOX IMVI melanoma
  TGI: 31.8 µM
M14 melanoma
  TGI: 33 µM
MALME-3M melanoma
  TGI: 31.6 µM
MDA-MB-231 breast
  TGI: 36.4 µM
MDA-MB-435
  TGI: 33.4 µM
MDA-N
  TGI: > 78.8 µM
NCI-H226 lung
  TGI: > 100 µM
NCI-H23 lung
  TGI: 62.3 µM
NCI-H460 lung
  TGI: > 100 µM
NCI-H522 lung
  TGI: 0.84 µM
NCI/ADR-RES ovarian
  TGI: 95.4 µM
OVCAR-3 ovarian
  TGI: > 100 µM
OVCAR-4 ovarian
  TGI: 54.3 µM
OVCAR-5 ovarian
  TGI: 60.5 µM
OVCAR-8 ovarian
  TGI: 29.1 µM
PC-3 prostate
  TGI: > 100 µM
RPMI-8226 leukemia
  TGI: 44 µM
RXF 393 renal
  TGI: 33 µM
SF-268 CNS
  TGI: > 70.2 µM
SF-295 CNS
  TGI: > 100 µM
SK-MEL-2 melanoma
  TGI: > 100 µM
SK-MEL-28 melanoma
  TGI: 39.2 µM
SK-MEL-5 melanoma
  TGI: 20.9 µM
SK-OV-3 ovarian
  TGI: > 100 µM
SN12C renal
  TGI: 39.1 µM
SNB-19 CNS
  TGI: > 100 µM
SNB-75 CNS
  TGI: 97.2 µM
SR leukemia
  TGI: > 51.6 µM
SW-620 colon
  TGI: 32 µM
T-47D breast
  TGI: > 100 µM
TK-10 renal
  TGI: > 76 µM
U251 CNS
  TGI: 44.6 µM
UACC-257 melanoma
  TGI: 58.7 µM
UACC-62 melanoma
  TGI: > 91.3 µM
UO-31 renal
  TGI: 42.6 µM

## CCc1ccccc1NC(=O)C(=O)CC(=O)c1sc(Nc2ccccc2Cl)nc1C
786-0 renal
  TGI: 90.9 µM
A549 NSCLC
  TGI: 80 µM
ACHN renal
  TGI: > 100 µM
BT-549 breast
  TGI: > 100 µM
CAKI-1 renal
  TGI: > 100 µM
CCRF-CEM leukemia
  TGI: 58.9 µM
COLO 205 colon
  TGI: 52.3 µM
DU-145 prostate
  TGI: > 100 µM
EKVX NSCLC
  TGI: > 100 µM
HCC-2998 colon
  TGI: > 100 µM
HCT-116 colon
  TGI: 50.4 µM
HCT-15 colon
  TGI: 92 µM
HL-60(TB) leukemia
  TGI: > 100 µM
HOP-62 NSCLC
  TGI: > 100 µM
HS 578T breast
  TGI: > 100 µM
HT29 colon
  TGI: > 100 µM
IGROV1 ovarian
  TGI: > 100 µM
K-562 leukemia
  TGI: > 100 µM
KM12 colon
  TGI: > 100 µM
LOX IMVI melanoma
  TGI: 44 µM
M14 melanoma
  TGI: 63.7 µM
MCF7 breast
  TGI: 45.9 µM
MDA-MB-231 breast
  TGI: > 100 µM
MDA-MB-435
  TGI: 66.4 µM
MDA-N
  TGI: 94.4 µM
MOLT-4 leukemia
  TGI: 49.8 µM
NCI-H226 lung
  TGI: > 100 µM
NCI-H23 lung
  TGI: > 100 µM
NCI-H460 lung
  TGI: 46.1 µM
NCI-H522 lung
  TGI: 47.5 µM
NCI/ADR-RES ovarian
  TGI: > 100 µM
OVCAR-3 ovarian
  TGI: 61 µM
OVCAR-4 ovarian
  TGI: > 100 µM
OVCAR-5 ovarian
  TGI: > 100 µM
OVCAR-8 ovarian
  TGI: > 100 µM
PC-3 prostate
  TGI: > 100 µM
RPMI-8226 leukemia
  TGI: 65.6 µM
RXF 393 renal
  TGI: 74.2 µM
SF-268 CNS
  TGI: > 100 µM
SF-295 CNS
  TGI: 99.2 µM
SF-539 CNS
  TGI: 66.1 µM
SK-MEL-2 melanoma
  TGI: 56.1 µM
SK-MEL-28 melanoma
  TGI: > 100 µM
SK-MEL-5 melanoma
  TGI: 52.4 µM
SK-OV-3 ovarian
  TGI: 63.3 µM
SN12C renal
  TGI: > 100 µM
SNB-19 CNS
  TGI: > 100 µM
SW-620 colon
  TGI: 69.9 µM
T-47D breast
  TGI: > 100 µM
TK-10 renal
  TGI: > 100 µM
U251 CNS
  TGI: > 100 µM
UACC-257 melanoma
  TGI: > 100 µM
UACC-62 melanoma
  TGI: > 100 µM
UO-31 renal
  TGI: > 100 µM

— PubChem BioAssay (NCI)
